Measured values from patent US9879050B2, “Substituted urea depsipeptide analogs as activators of the CLPP endopeptidase” (priority 2013, dated 2018).
Values after ≈ are worked out from the molar mass of the structure shown. Read-outs that look alike come from different tables or passages of the source.

Tests used:
Sa-ClpP [1] = target: T1, Sa-ClpP (Staphylococcus aureus, UniProt Q2G036); assay: ClpP activation, EnzCheck Protease Assay with Bodipy-FL casein (second described method); type: biochemical, S. aureus; conditions: read-out: ClpP Activation EC50 (converted)
T1 construct: made in house; host or cells: E. coli BL21 (DE3)
Outline: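 Sa-ClpP (2 μM in master mix) with Bodipy-FL casein (2 μM in master mix) in Tris-HCl pH 8.0, 0.01% Triton X-100, compounds in 2% DMSO, triplicate. Fluorescence (ex 485/em 520 nm) followed 30 min; degradation slopes normalized to ADEP4 and DMSO controls, EC50 and % activation by four-parameter fit.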

Sa-ClpP [2] = target: T1, Sa-ClpP; assay: ADEP displacement fluorescence polarization assay; type: binding, S. aureus; conditions: 1 μM Sa-ClpP, 50 nM FP probe ADEP 2591; read-out: ADEP Displacement IC50
Outline: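 Displacement of TAMRA-labelled ADEP 2591 probe (50 nM) from 1 μM Sa-ClpP, pre-equilibrated 1 h in Tris·HCl pH 8.0 with 2% DMSO, then 120 min at room temperature with compound, triplicate. Polarization (mP) read ex 530/em 579 nm, normalised to 20 μM ADEP 2378 and DMSO controls; four-parameter fit.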

[3] = Cytotoxicity assay, CellTiter-Glo cell viability; type: cell-based; conditions: African green monkey
Method: Cytotoxicity was determined by determining the effect of compounds on cell viability. Vero (kidney epithelial cells; ATCC CCL-81) monolayers were trypsinized and 5000 cells/well were seeded (10-15% confluency) into white-wall, flat bottom 96 well microwell plates (Corning) using enriched Dulbecco's Modified Eagle's Medium (Hyclone: DMEM/High Glucose) containing 10% Fetal Bovine Serum (ATCC-30-2020). Plates were incubated overnight at 37° C. in the presence of 5% CO2. Drug-free media was then replaced with media containing serial dilutions of test compound or DMSO carrier. After an additional 72 hours of incubation, viability was indirectly measured using the CellTiter-Glo® Luminescent Cell Viability (Promega) assay. Assay plates were read at peak emission wavelength of 560 nm using a EnVision® Multilabel Plate Reader (Perkin Elmer) or PHERAstar FS Multilabel reader (BMG, Cary, N.C.). […] USA, www.graphpad.com]. For each experiment, compounds were tested in duplicate. IC50 values presented are the range of two biologically independent experiments.

S. aureus USA 300 ΔClpP = assay: Minimal inhibitory concentration, microbroth dilution; type: cell-based, Staphylococcus aureus; conditions: ClpP inactivated strain
Outline: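 Following CLSI M7-A7 microbroth dilution, twofold serial dilutions of compound (top final concentration 200 μM) were combined with an equal volume of broth inoculum at about 10^5 cfu/mL. Plates were incubated aerobically at 37 °C overnight, and the MIC was the lowest concentration preventing visible growth.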

S. pneumoniae R6 = assay: as above; type: cell-based; conditions: Streptococcus pneumoniae, R6, read-out: Minimal Inhibitory Concentration S. pneumoniae R6
Outline: (§1)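 Twofold serial dilutions in broth per CLSI M7-A7 microbroth dilution, incubated aerobically overnight at 37° C. MIC read visually as lowest concentration preventing bacterial growth.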

S. pyogenes ATCC 700294 = assay: as above; type: cell-based; conditions: Streptococcus pyogenes, ATCC700294, read-out: Minimal Inhibitory Concentration S. pyogenes ATCC 700294
Outline: as §1

B. subtilis ATCC 23857 = assay: as above; type: cell-based; conditions: Bacillus subtilis, ATCC23857, read-out: Minimal Inhibitory Concentration B. subtilis ATCC 23857
Method: (§2) Minimal inhibitory concentrations (“MICs”) were determined using the microbroth dilution method according to Clinical Laboratory Standards Institute (CLSI; National, C.F. C. L. S., Methods for Dilution Antimicrobial Susceptibility Tests for Bacteria Grow aerobically-Seventh Edition: Approved Standard M7-A7, CLSI, Wayne, Pa., USA, 2008) and were read by visual inspection. Two fold serial dilutions of test compound in 100 μL of the appropriate broth media were first prepared in 96-well round bottom microtiter plates (Nalgene Nunc International, Rochester, N.Y., USA). An equivalent volume (100 μL) of bacterial broth inocula containing approximately 10^5 bacterial cfu/mL was added to each well to give final concentrations of test compound starting at 200 μM. The plates were then incubated aerobically at 37° C. All strains were incubated overnight. After incubations, in all cases the MIC was recorded as the lowest concentration of drug that prevented bacterial growth. The bacterial strains for which MIC was determined as described in Table 4.

S. aureus ATCC 29213 = assay: as above; type: cell-based; conditions: Staphylococcus aureus, ATCC29213, read-out: Minimal Inhibitory Concentration S. aureus ATCC 29213
Method: as §2

S. aureus ClpP (Sa-ClpP) = target: T2, S. aureus ClpP (Sa-ClpP) (Staphylococcus aureus, UniProt Q2G036); assay: ClpP activation, casein-BODIPY digestion assay (first described method); type: biochemical; conditions: first described ClpP activation assay (**); 10 μM saClpP, 25 μg/ml BODIPY FL casein, 37° C.; read-out: ClpP Activation EC50
T2 construct: made in house; host or cells: E. coli BL21 (DE3)
Method: The compounds were assayed in a casein digestion assay in order to determine their effect on ClpP activation. Briefly, the assay was carried out using S. aureus ClpP (“Sa-ClpP”) overexpressed in E. coli BL21 (DE3) and purified in a two-step process. Purity of the protein was assessed through SDS PAGE analysis. EC50 evaluations were conducted in triplicate in a 20 μl assay format using a method adapted from Maurizi et al. (Methods Enzymol. (1994) 244:314-331.). Each well contained 10 μM saClpP, 25 μg/ml BODIPY FL casein (Invitrogen Corporation, San Diego, Calif.), and test compound in concentrations ranging between 0-100 μM in assay buffer (50 mM Tris pH 8, 200 mM KCl, and 1 mM TCEP). The reaction took place at 37° C. Fluorescence (excitation 485 nm; emission 528 nm) was measured in five minute intervals over a 45 min period using a BioTek HT fluorescence microplate reader (BioTek Instruments, Inc., Winooski, Vt.). Velocity of each reaction was calculated and data was fit to a dose response curve using GraphPad Prism® software (GraphPad Software, Inc., La Jolla, Calif.). EC50 is the effective concentration of compound which causes 50% activation of S. aureus ClpP in the foregoing BODIPY FL casein assay.

[4] = Vero cells, 72 hours, read-out: Cytotoxicity IC50

T1 sequence (Q2G036 whole entry): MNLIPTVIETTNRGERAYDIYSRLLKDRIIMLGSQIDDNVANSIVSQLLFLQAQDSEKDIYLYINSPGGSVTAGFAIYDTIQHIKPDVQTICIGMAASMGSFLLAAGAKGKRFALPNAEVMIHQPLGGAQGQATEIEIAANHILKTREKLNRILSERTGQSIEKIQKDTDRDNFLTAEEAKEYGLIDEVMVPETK
T2 sequence (Q2G036 whole entry): as above

SMILES	EC50 (Sa-ClpP [1]) [µM]	IC50 (Sa-ClpP [2]) [µM]	IC50 at 72 h [3, 4] [µM]	Minimal Inhibitory Concentration S. aureus USA 300 ΔClpP (S. aureus USA 300 ΔClpP) [µM]	MIC (S. pneumoniae R6) [µM]	MIC (S. pyogenes ATCC 700294) [µM]	MIC (B. subtilis ATCC 23857) [µM]	MIC (S. aureus ATCC 29213) [µM]	EC50 (S. aureus ClpP (Sa-ClpP)) [µM]	IC50 at 72 h [3] [µM]
Cc1ccc(NC(=O)N[C@@H](Cc2ccccc2)C(=O)N[C@H]2COC(=O)C3C[C@H](C)CN3C(=O)[C@H](C)NC(=O)C3CCCCN3C(=O)C3CCCN3C2=O)cc1 (stereo partly drawn) [Compound 43, (S)—N-((2S,6S,8aS,14aS,20S,23aS)-2,6-Dimethyl-5,8,14,19,23-Pentaoxooctadecahydro-1H,5H,14H,19H-Pyrido[2,1-I]Dipyrrolo[2,1-C:2′,1′-L][1]Oxa[4,7,10,13]Tetraazacyclohexadecin-20-Yl)-3-Phenyl-2-(3-(P-Tolyl)Ureido)Propanamide]	0.37 ± 0.03	6.57 ± 0.2	74.5 ± 8.8	>200	0.2 (≈ 0.152 µg/mL)	0.8 (≈ 0.606 µg/mL)	0.4 (≈ 0.303 µg/mL)	1.6 (≈ 1.21 µg/mL)		
Cc1ccc(NC(=O)N[C@@H](Cc2cc(F)cc(F)c2)C(=O)N[C@@H]2C(=O)N3CCCC3C(=O)N3CCCCC3C(=O)N[C@@H](C)C(=O)N3C[C@H](C)CC3C(=O)O[C@H]2C)cc1 (stereo partly drawn) [Compound 39, (S)-3-(3,5-Difluorophenyl)-2-(3-(P-Tolyl)Ureido)-N-((2R,6S,8aS,14aS,20S,21S,23aS)-2,6,21-Trimethyl-5,8,14,19,23-Pentaoxooctadecahydro-1H,5H,14H,19H-Pyrido[2,1-I]Dipyrrolo[2,1-C:2′,1′-L][1]Oxa[4,7,10,13]Tetraazacyclohexadecin-20-Yl)Propanamide]	0.48 ± 0.03	9 ± 0.4	40 ± 4.1	100	0.05 (≈ 0.0404 µg/mL)	0.2 (≈ 0.162 µg/mL)	0.02 (≈ 0.0162 µg/mL)	0.05 (≈ 0.0404 µg/mL)		
Cc1ccc(NC(=O)N[C@@H](Cc2cc(F)cc(F)c2)C(=O)N[C@@H]2C(=O)N3CCCC3C(=O)N3CCOCC3C(=O)N[C@@H](C)C(=O)N3C[C@@H](C)CC3C(=O)O[C@H]2C)cc1 (stereo partly drawn) [Compound 33, (S)-3-(3,5-Difluorophenyl)-2-(3-(P-Tolyl)Ureido)-N-((6aS,12S,13S,1 5aS,17S,21S,23aS)-13,17,21-Trimethyl-6,11,15,20,23-Pentaoxooctadecahydro-6H,11H,15H-[1,4]Oxazino[3,4-I]Dipyrrolo[2,1-C:2′,1′-L][1]Oxa[4,7,10,13]Tetraazacyclohexadecin-12-Yl)Propanamide]	0.39 ± 0.02	5.6 ± 0.3	41 ± 4.3	200	0.098 (≈ 0.0794 µg/mL)	0.39 (≈ 0.316 µg/mL)	0.2 (≈ 0.162 µg/mL)	0.2 (≈ 0.162 µg/mL)		
CCc1ccc(NC(=O)N[C@@H](Cc2cc(F)cc(F)c2)C(=O)N[C@H]2COC(=O)[C@@H]3C[C@@H](C)CN3C(=O)[C@H](C)NC(=O)[C@@H]3CCCCN3C(=O)[C@@H]3CCCN3C2=O)cc1 [Compound 14, (S)-3-(3,5-Difluorophenyl)-N-((2R,6S,8aS,14aS,20S,23aS)-2,6-Dimethyl-5,8,14,19,23-Pentaoxooctadecahydro-1H,5H,14H,19H-Pyrido[2,1-I]Dipyrrolo[2,1-C:2′,1′-L][1]Oxa[4,7,10,13]Tetraazacyclohexadecin-20-Yl)-2-(3-(4-Ethylphenyl)Ureido)Propanamide]		61.3 ± 5							2.5 ± 0.6	70.5 ± 13.5
C[C@@H]1C[C@H]2C(=O)OC[C@H](NC(=O)[C@H](Cc3cc(F)cc(F)c3)NC(=O)Nc3ccc(OC(F)(F)F)cc3)C(=O)N3CCC[C@H]3C(=O)N3CCCC[C@H]3C(=O)N[C@@H](C)C(=O)N2C1 [Compound 13, (S)-3-(3,5-Difluorophenyl)-N-((2R,6S,8aS,14aS,20S,23aS)-2,6-Dimethyl-5,8,14,19,23-Pentaoxooctadecahydro-1H,5H,14H,19H-Pyrido[2,1-I]Dipyrrolo[2,1-C:2′,1′-L][1]Oxa[4,7,10,13]Tetraazacyclohexadecin-20-Yl)-2-(3-(4-(Trifluoromethoxy)Phenyl)Ureido)Propanamide]		5.69 ± 0.5							3.2 ± 0.6	70.9 ± 8.9
Cc1ccc(NC(=O)N[C@@H](Cc2cc(F)cc(F)c2)C(=O)N[C@@H]2C(=O)N3CCCC3C(=O)N(C)[C@@H](C)C(=O)N[C@@H](C)C(=O)N3C[C@@H](C)CC3C(=O)O[C@H]2C)cc1 (stereo partly drawn) [Compound 26, (2S)-3-(3,5-Difluorophenyl)-N-((2S,6S,9S,11aS,17S,18S)-2,6,9,10,18-Pentamethyl-5,8,11,16,20-Pentaoxohexadecahydro-1H,5H,16H-Dipyrrolo[2,1-C:2′,1′-L][1]Oxa[4,7,10,13]Tetraazacyclohexadecin-17-Yl)-2-(3-(P-Tolyl)Ureido)Propanamide]	0.29 ± 0.01	8.2 ± 0.3	40.5 ± 3.8	200	0.125 (≈ 0.0977 µg/mL)	0.5 (≈ 0.391 µg/mL)	0.03 (≈ 0.0235 µg/mL)	0.2 (≈ 0.156 µg/mL)		
Cc1ccc(NC(=O)N[C@@H](Cc2cc(F)cc(F)c2)C(=O)N[C@@H]2C(=O)N3CCCC3C(=O)N(C)[C@@H](C)C(=O)N[C@@H](C)C(=O)N3CCCC3C(=O)O[C@H]2C)cc1 (stereo partly drawn) [Compound 25, (2S)-3-(3,5-Difluorophenyl)-N-((6S,9S,11aS,17S,18S)-6,9,10,18-Tetramethyl-5,8,11,16,20-Pentaoxohexadecahydro-1H,5H,16H-Dipyrrolo[2,1-C:2′,1′-L][1]Oxa[4,7,10,13]Tetraazacyclohexadecin-17-Yl)-2-(3-(P-Tolyl)Ureido)Propanamide]	0.48 ± 0.03	8.9 ± 0.3	10.8 ± 1	200	0.254 (≈ 0.195 µg/mL)	1 (≈ 0.768 µg/mL)	0.02 (≈ 0.0154 µg/mL)	0.78 (≈ 0.599 µg/mL)		
